Reference: the supplement of paper PMC10307832

What was measured:
Test in all cases: relative viability (nuclei count vs DMSO), 5 days (fraction); higher = more cells survive
BAM7 + Lapatinib = compound: CCOC1=CC=CC=C1N=NC2=C(NN(C2=O)C3=NC(=CS3)C4=CC=CC=C4)C [BAM7] + CS(=O)(=O)CCNCc1ccc(-c2ccc3ncnc(Nc4ccc(OCc5cccc(F)c5)c(Cl)c4)c3c2)o1 [Lapatinib] (partner 2 µM)
Outline: (§1)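 Five library-drug doses in √10 steps were combined with a fixed anchor-drug dose, or a single drug was given alone, by pin tool to lung cancer cell lines in 1536-well plates the day after seeding. Nuclei were stained and counted after 5 days. Relative viability is the nuclei count in treated wells over that in vehicle wells, taken as the median of duplicate plates.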

[1] = compound: CCn1c(-c2nonc2N)nc2c(C#CC(C)(C)O)ncc(OC[C@H]3CCCNC3)c21 + COc1cccc2cc(-c3nc([C@H]4CC[C@H](C(=O)O)CC4)n4ncnc(N)c34)[nH]c12 [OSI-027] (partner 0.5 µM)
Outline: as §1

[2] = compound: CCn1c(-c2nonc2N)nc2c(C#CC(C)(C)O)ncc(OC[C@H]3CCCNC3)c21 + O=C(c1cc(Cc2n[nH]c(=O)c3ccccc23)ccc1F)N1CCN(C(=O)C2CC2)CC1 [Olaparib] (partner 8 µM)
Outline: as §1

BAM7 + Foretinib = compound: CCOC1=CC=CC=C1N=NC2=C(NN(C2=O)C3=NC(=CS3)C4=CC=CC=C4)C [BAM7] + COc1cc2c(Oc3ccc(NC(=O)C4(C(=O)Nc5ccc(F)cc5)CC4)cc3F)ccnc2cc1OCCCN1CCOCC1 [Foretinib] (partner 0.25 µM)
Outline: as §1

Cell Line	relative viability (BAM7 + Lapatinib; first compound 0.5 µM)	relative viability (BAM7 + Lapatinib; first compound 5 µM)	relative viability (BAM7 + Lapatinib; first compound 15.81 µM)	relative viability (BAM7 + Lapatinib; first compound 50 µM)	relative viability ([1]; first compound 0.01 µM)	relative viability ([1]; first compound 0.03162 µM)	relative viability ([1]; first compound 0.1 µM)	relative viability ([1]; first compound 0.3162 µM)	relative viability ([1]; first compound 1 µM)	relative viability ([2]; first compound 0.01 µM)	relative viability ([2]; first compound 0.03162 µM)	relative viability ([2]; first compound 0.1 µM)	relative viability ([2]; first compound 0.3162 µM)	relative viability ([2]; first compound 1 µM)	relative viability (BAM7 + Foretinib; first compound 0.5 µM)	relative viability (BAM7 + Foretinib; first compound 5 µM)	relative viability (BAM7 + Foretinib; first compound 15.81 µM)	relative viability (BAM7 + Foretinib; first compound 50 µM)
NCI-H1734	1.1	1.23	0.974	1.11	0.574	0.632	0.538	0.478	0.382	0.625	0.573	0.575	0.555	0.618	0.849	1	0.779	0.825
NCI-H1755	1.06	1.13	1.04	0.979	0.704	0.697	0.704	0.69	0.638	0.969	0.891	0.873	0.847	0.917	0.951	0.941	0.961	0.95
NCI-H1793	0.8	0.636	0.64	0.93	0.279	0.29	0.232	0.251	0.252	0.765	1.26	–	0.742	0.933	0.679	0.619	0.727	0.928
NCI-H1915	1.02	1.09	0.911	1.04	0.625	0.648	0.573	0.629	0.652	0.258	0.277	0.225	0.249	0.255	1.21	1.15	1.02	1.02
NCI-H1944	0.894	0.998	0.842	0.954	0.367	0.403	0.434	0.37	0.401	0.393	0.418	0.4	0.41	0.407	0.79	0.905	0.767	0.888
NCI-H1975	0.848	0.77	–	0.819	0.747	0.824	0.616	0.57	0.6	0.745	0.809	0.837	0.784	0.757	0.77	0.801	0.718	0.829
NCI-H1993	0.76	0.915	0.763	0.906	0.579	0.537	0.525	0.546	0.549	1.14	1.13	0.963	0.943	0.985	0.73	0.738	0.717	0.708
NCI-H2009	1.03	1.06	0.898	0.938	0.577	0.658	0.578	0.569	0.584	0.655	0.673	0.682	0.685	0.75	1.28	1.33	1.26	1.21
NCI-H2023	1.05	0.751	0.737	1.09	0.369	0.411	0.307	0.202	0.195	0.501	0.454	0.437	0.381	0.475	0.925	0.783	0.803	0.964
NCI-H2085	0.764	0.612	0.74	0.881	0.84	0.895	0.806	0.72	0.656	0.758	0.807	0.795	0.755	0.725	0.973	1.18	0.743	1.19
NCI-H2087	1.12	1.17	1.08	0.934	0.479	0.522	0.652	0.477	0.467	0.528	–	0.533	0.569	0.543	1.18	1.23	0.995	1.12
NCI-H2126	0.726	0.664	0.743	0.755	0.749	0.69	0.675	0.624	0.677	0.917	0.927	0.977	0.893	0.95	1.18	1.05	0.889	0.923
NCI-H2170	0.264	0.285	0.258	0.287	0.733	0.715	0.766	0.66	0.679	0.654	0.567	0.645	0.559	0.586	0.973	0.994	0.91	1
NCI-H2228	1.31	1.19	1.05	1.1	0.628	0.559	0.446	0.421	0.279	0.701	0.895	0.847	0.541	0.55	1.04	0.964	0.879	1.16
NCI-H2347	0.968	1.26	0.899	1.03	0.419	0.42	–	0.466	0.336	0.567	0.512	0.6	0.608	0.549	1.23	0.918	0.969	0.981
NCI-H2405	1.1	1.26	1.12	1.1	0.646	0.647	0.597	0.612	0.612	0.836	0.844	0.821	0.8	0.915	1.04	1.12	1.02	1.04
NCI-H3122	1.09	1.04	1.04	1.03	0.875	0.913	0.791	0.317	0.4	0.591	0.62	0.632	0.559	0.609	0.838	0.856	0.916	0.866
PC-3 [JPC-3]	0.425	0.472	0.427	0.412	0.786	0.699	0.808	0.736	0.682	1.07	–	1.15	1.03	1.09	0.923	0.948	0.819	0.915
